According to patent US5691334A, “Pyrrolydenemethyl-derivatives and process for their preparation” (Pharmacia & Upjohn S.p.A., priority 1993, dated 1997):
Where a name gives a salt, the structure may show the parent alone. Read-outs that look alike come from different tables or passages of the source.

Experiments:
[1] = system: tumor cell lines (human erythroleukemia K562, murine melanoma B16); experiment: Tumor cell growth (test 3: proliferation of human erythroleukemia K562, murine melanoma B16; MTT); format: cell-based; settings: read-out: IC50 tumor cell growth (upper and lower limits)
Procedure: Proliferation of tumor cell lines (human erythroleukemia K562, murine melanoma B16).
Test 3 allows to investigate the inhibitory effect of the present compounds on a generic proliferation pathway, independent from immune-specific growth factors.
Tumor cells were collected in the logarithmic phase of growth and seeded in triplicate in flat bottomed microculture plates at the concentration of 1×10^4 in the presence or absence of different concentrations of the test compound. After 48 h incubation at 37° C. in 5% CO2, the cell viability was evaluated by the MTT colorimetric method according to Ferrari et al., J. Immunol.
The concentration inhibiting 50% (IC50) of the cell proliferation in the different settings is calculated for the test compounds and the reference standard UP.

[2] = system: murine splenocytes; experiment: Lymphocyte proliferation (tests 1 and 2: murine splenocytes induced by ConA / by irradiated allogenic spleen cells, MLR); format: cell-based; settings: for IC50: Mus musculus, Splenocyte, read-out: IC50 lymphocyte proliferation (upper and lower limits); for TI (therapeutic index): ratio of mean IC50 on tumor cells growth (test 3) to IC50 on lymphocytes proliferation (tests 1 and 2)
Procedure: Proliferation of murine splenocytes induced by the mitogen Concanavaline A.
Proliferation of murine splenocytes induced by irradiated allogenic murine spleen cells (MLR).
Tests 1 and 2 allow the study of the compounds on proliferation models mediated by T-cell growth factors (e.g. IL-2) and are considered immunologically specific.
Spleens were aseptically removed from C57B1/6 mice and a cell suspension prepared in complete medium. Cell viability was evaluated by trypan blue exclusion.
Spleen cells (4×10^5) were cultured in triplicate in a volume of 0.15 ml, in flat bottomed microculture plates, in the absence or presence of an optimal concentration of ConA (1.7 microgr/ml) and of different concentrations of the test compound. Cultures were incubated for 72 h at 37° C. in a humidified, 5% CO2 incubator; 18 h before termination of the cultures, 0.2 microCi of [methyl-^3 H]thymidine were added to each well. Cells were harvested on glass fiber filters and the [^3 H]TdR uptake (cpm) quantified in a liquid scintillation counter.
Spleens were aseptically removed from C57B1/6 mice (responders) and Balb/c mice (stimulators), and cell suspensions prepared in complete medium. Responder cells (1×10^6) were cocultured in triplicate with irradiated (1500R) stimulator cells (5×10^5) in a volume of 0.15 ml in the presence or absence of different concentrations of the test compound, in flat bottomed microculture plates. Cultures were incubated for 96 h at 37° C. in a humidified, 5% CO2 incubator; the last 18 h in the presence of 0.2 microCi of ^3 H-TdR.
Cells were harvested on glass fiber filter and the ^3 H-TdR uptake (cpm) quantified in a liquid scintillation counter.
The concentration inhibiting 50% (IC50) of the cell proliferation in the different settings is calculated for the test compounds and the reference standard UP. The ratio between the mean IC50 values on tumor cells growth (test 3) and the IC50 on lymphocytes proliferation (measured by test 1 and 2) produces the therapeutic index (TI) of the compounds.

[3] = test 3, mean IC50 on tumor cells (K562, B16), 48 h, MTT, limits in parentheses
[4] = tests 1 and 2, [3H]thymidine uptake, ConA 72 h, MLR 96 h, limits in parentheses

IC50 [1, 3] [µg/mL]	SMILES	IC50 ([1]; K562, 48 h) [µg/mL]	IC50 [2] [µg/mL]	TI (therapeutic index) [2]	IC50 [2, 4] [µg/mL]
–	CCCCCCCCCCCC1=NC(=Cc2[nH]c(-c3ccc[nH]3)cc2OC)C=C1.Cl [UP, 4-methoxy-5-[(5-undecyl-2H-pyrrol-2-ylidene)methyl]-2,2'-bi-1H-pyrrole, hydrochloride, reference compound]	0.106	0.0029	36	–
–	CCCCCCCCCCCC1=NC(=Cc2[nH]c(-c3ccc[nH]3)cc2OCc2ccccc2)C=C1.Cl [FCE 29002, 4-benzyloxy-5-[(5-undecyl-2H-pyrrol-2-ylidene)methyl]-2,2'-bi-1H-pyrrole, hydrochloride]	5.8	0.0301	193	–
–	CCCCCCCCCCCCCC1=NC(=Cc2[nH]c(-c3ccc[nH]3)cc2OCC)C=C1.Cl [FCE 28733, 4-ethoxy-5-[(5-tridecyl-2H-pyrrol-2-ylidene)methyl]-2,2'-bi-1H-pyrrole, hydrochloride]	0.859	0.0051	168	–
–	CCCCCCCCCCCC1=NC(=Cc2[nH]c(-c3ccc[nH]3)cc2OCC)C=C1.Cl [FCE 28512, 4-ethoxy-5-[(5-undecyl-2H-pyrrol-2-ylidene)methyl]-2,2'-bi-1H-pyrrole, hydrochloride]	0.511	0.0023	222	–
0.784	CCCCCCCCCCCC1=NC(=Cc2[nH]c(-c3ccc[nH]3)cc2OCCCC)C=C1 [FCE 28789, 4-buthoxy-5-[(5-undecyl-2H-pyrrol-2-ylidene)methyl]-2,2'-bi-1H-pyrrole, hydrochloride]	–	–	66	0.0119
0.584	CCCCCCCCCCCCCC1=NC(=Cc2[nH]c(-c3ccc[nH]3)cc2OC)C=C1.Cl [FCE 28526, 4-methoxy-5-[(5-tridecyl-2H-pyrrol-2-ylidene)methyl]-2,2'-bi-1H-pyrrole, hydrochloride]	–	–	290	0.002
